# Experimental data: US12024584B2, “Methods and compositions for polyurethane dispersions using caprolactam-derived solvents” (AdvanSix Resins & Chemicals LLC, priority 2017, dated 2024)
# Legend:
# [1] = Color of pigmented and complete PUDs (ISO 7724-2); format: physicochemical; details: for effect on color (yellowing): pigmented PUD
# Source text: (§1) Tests were first performed to determine the coalescing agent level for pigmented and complete PUD formulations in order to achieve the optimum film formation. Complete paints were mixed with 0.7 wt. %, 1.5 wt. %, 3.0 wt. % and 5.0 wt. % of coalescing agents and applied on tin plated steel at a wet film thickness of around 250 μm, where the weight percentage was based on the pure polyurethane dispersion resins. […] Based on the observations, 3 wt. % dosage of coalescing agent was selected. Complete PUD formulations with pigments, fillers and other additives were prepared as per Table 5, and used to test and determine the coalescing properties of the caprolactam-derived solvents and other known coalescing agents.
# (§2) Gloss measurements serve as an indicator of the paints surface quality. Gloss and color measurements were determined according to the ISO 2813 standard and the ISO 7724-2 standard (SCI-D65/10°), respectively.
# [2] = Scrub resistance of pigmented and complete PUDs (ISO 11998); format: physicochemical; details: for Wt. Loss: 200 wet-scrub cycles; for Loss of thickness after 200 wet-scrub cycles: calculated from weight loss
# Source text: as §1
# Scrub resistance was tested according the ISO 11998 “Paints and Varnishes—Determination of Wet-Scrub Resistance and Cleanability of Coatings” standard. In this testing method, the paint was applied on a test panel (Leneta sheet) using a film applicator at the specific gap clearance. After drying and conditioning for four weeks at room temperature the coated panel was weighed and subject to 200 wet-scrub cycles in a scrub resistance machine. The panel was then washed, dried and weighed to determine the loss from which the mean loss in film thickness was calculated. […] For instance, N-methyl caprolactam (NM CPL), N-ethyl caprolactam (NE CPL), and blends thereof in the ratios of 1:2 and 1:1, all had less loss of thickness (2.035 μm, 1.797 μm, 1.39 μm, and 1.64 μm, respectively) as compared to NMP (2.090 μm) and NBP (2.213 μm).
# [3] = MFFT of pigmented and complete PUDs; format: physicochemical; details: pigmented and complete PUD, 3 wt. % coalescing agent
# Source text: as §1, with “agents. The standard test for determining this temperature involves using a MFFT-BAR, as specified by standards ASTM D 2354 and ISO 2115. In general, the MFFT of a paint or coating is reduced temporarily by the use of coalescing agents.” for “agents.”
# [4] = Viscosity and storage stability of pigmented PUD formulations; format: physicochemical; details: 1 month at 50° C., FIG. 5
# Source text: as §1
# Dispersions and emulsions tend to aggregate polyurethane particles during storage. One way to determine the stability of a polyurethane dispersion is to measure viscosity of the polyurethane dispersion over time. Viscosity is a measure of a solvent's resistance to gradual deformation by shear stress or tensile stress. […] The storage stability of the dispersions was evaluated based on variations between viscosity measurements performed on paints shortly after their preparation and after their storage for either one month at room temperature or one month at 50° C.
# [5] = Drying time (ASTM D1640 / ASTM D5895); format: physicochemical; details: 200 μm humid film; blends by ASTM D1640, single solvents by ASTM D5895
# Source text: as §1
# The drying times for the pigmented PUD formulations were determined according to the ASTM D1640 “Standard Test Methods for Drying, Curing, or Film Formation of Organic Coatings” standard or the ASTM D5895 “Standard Test Methods for Evaluating Drying or Curing During Film Formation of Organic Coatings Using Mechanical Recorders” standard. Four stages of drying can be identified depending on the trace left by the needle on the paint surface: Stage 1—Set-to-Touch time, Stage 2—Tack-Free time, Stage 3—Dry-Hard time, and Stage IV—Dry trough time. However, Stage IV is often hard to detect.
# In general, the paints were applied at a humid film thickness of 200 μm by means of a bar coater on a Leneta sheet and the needle rate was set at 60 cm/hr.
# For the present examples, the drying times for the 2:1 A:B, 1:1 A:B, and 1:2 A:B solvents were determined using the ASTM D1640 standard, and the drying times for NM CPL, NE CPL, NMP, NBP, ester amide, and ester alcohol were determined using the ASTM D5895 standard.
# [6] = Minimum film forming temperature, non-pigmented resin + coalescing agent; format: physicochemical; details: resin with 5 wt. % coalescing agent, film thickness 350 μm
# [7] = Freeze and thaw stability (ASTM D2243-95); format: physicochemical; details: for freeze-thaw stability and film properties (comparison): FIGS. 8 and 9
# Procedure: Water-based emulsions and dispersions are susceptible to irreversible coagulation by freezing. Freeze and thaw stability was tested according the ASTM D2243-95 standard.
# For these examples, pigmented PUD paints were subject to freeze-thaw cycles of 16 hours at −20° C. and 8 hours at room temperature and subsequently subject to visible observations. The paints were then applied on a tin plated steel plate at a thickness of approximately 200 μm for observing film properties.
# In addition, the freeze-thaw stability was best for caprolactam-derived coalescing agents (NM CPL) and the blends even after subject to five cycles (see FIG. 9). In particular, the paints were visually observed after each cycle to see if there was any viscosity change, i.e., thickening of the paint. Then, the dry films of the coatings were observed visually.
# [8] = Gloss of pigmented and complete PUDs (ISO 2813); format: physicochemical
# Source text: as §1, §2
# [9] = Persoz hardness of pigmented and complete PUDs; format: physicochemical; details: pigmented, in s
# Source text: as §1
# Persoz hardness measurements were performed on pigmented paints that were applied on tin plated steel using a doctor blade applicator at a dry film thickness (DFT) around 50 μm according to the ISO 1522 standard. […] For instance, the 28 day hardness for N-ethyl caprolactam (NE CPL) was approximately 104.6±0.5, while the 28 day hardness for NMP was approximately 108.8±2.4, and the 28 day hardness for ester alcohol and N-methyl caprolactam (NM CPL) were approximately 124.8±1 and 126.0±1, respectively, while the 28 day hardness for NBP was approximately 135.8±5.
# [10] = Open time (ASTM D7488); format: physicochemical; details: ASTM D7488, 23±2° C., 50±5% RH, wet film 200 μm
# Source text: as §1
# Open times were determined according to the ASTM D7488 “Test Method for Open Time of Latex” standard and the tests were performed under controlled temperature and humidity (23±2° C. and 50±5% RH). In general, the paints were applied at a wet film thickness of 200 μm on contrasting sealed charts by means of a doctor blade applicator, and “X” marks are made immediately with the wide curved end of a wooden paint brush. After a determined time internal, the brush was dipped into the paint to be tested and brushing of the X-marks was started in perpendicular direction to the initial drawdown using 10 strokes back and forth to work the paint under test into the drawdown area. This procedure is repeated after several time intervals. After their complete drying (1 week), the painted panels are observed by two different observers and the time for which the “X” marks to become visible is considered as the open time.
# [11] = Solubility of DMPA in solvents
# Procedure: Solubility was tested between the various solvents to determine their applicability in the PUD manufacturing processes. Solubility is the amount of a substance (coalescing agent) that dissolves in a unit volume of a liquid substance (solvent) to form a saturated solution under specified conditions of temperature and pressure. For the examples, amounts of […] (DMPA) were dissolved in each solvent.
compound,measurement,setting,value
"CCN1CCCCCC1=O [N—EtCPL, N-ethyl caprolactam]",Color (Black background) L*,[1],94.45
same,Color (Black background) a*,[1],−0.92
same,Color (Black background) b*,[1],2.46
same,Color (White background) L*,[1],95.04
same,Color (White background) a*,[1],−0.61
same,Color (White background) b*,[1],3.24
same,effect on color (yellowing),[1],no yellowing
same,Wt. Loss,[2],3.767 g/m^2
same,Loss of thickness after 200 wet-scrub cycles,[2],1.797 µm
same,MFFT,[3],−2.4 °C
same,storage stability (viscosity buildup),[4],low viscosity buildup
same,Drying Time,[5],17.4 min
same,MFFT,[6],−1.4±0.3 °C
same,freeze-thaw stability and film properties (comparison),[7],better freeze-thaw stability and film properties than NBP and ester alcohol
same,Gloss 20°,[8],1.3 ± 0
same,Gloss 60°,[8],3.0 ± 0
same,Gloss 85°,[8],24.5 ± 0.5
same,Persoz Hardness,[9]; 1 Day,101.0 ± 1.0
same,Persoz Hardness,[9]; 7 Days,102.0 ± 0.7
same,Persoz Hardness,[9]; 14 Days,101.4 ± 2.6
same,Persoz Hardness,[9]; 21 Days,104.0 ± 2.8
same,Open Time,[10],16 min
same,Solubility,[11],20.0 g/100 g of Solvent
"CN1CCCCCC1=O [N—MeCPL, N-methyl caprolactam]",Color (Black background) L*,[1],94.09
same,Color (Black background) a*,[1],−0.97
same,Color (Black background) b*,[1],2.25
same,Color (White background) L*,[1],95.07
same,Color (White background) a*,[1],−0.52
same,Color (White background) b*,[1],3.32
same,effect on color (yellowing),[1],no yellowing
same,Wt. Loss,[2],3.763 g/m^2
same,Loss of thickness after 200 wet-scrub cycles,[2],2.035 µm
same,MFFT,[3],−0.8 °C
same,storage stability (viscosity buildup),[4],low viscosity buildup
same,Drying Time,[5],11.6 min
same,MFFT,[6],−0.8±0.4 °C
same,freeze-thaw stability and film properties (comparison),[7],better freeze-thaw stability and film properties than NBP and ester alcohol
same,freeze-thaw stability: viscosity change (thickening of the paint),[7]; cycles of 16 hours at −20° C. and 8 hours at room temperature,no such viscosity change even after five freeze-thaw cycle
same,Gloss 20°,[8],1.3 ± 0
same,Gloss 60°,[8],3.0 ± 0
same,Gloss 85°,[8],23.2 ± 0.2
same,Persoz Hardness,[9]; 1 Day,95.2 ± 1
same,Persoz Hardness,[9]; 7 Days,101.2 ± 3
same,Persoz Hardness,[9]; 14 Days,122.0 ± 3
same,Persoz Hardness,[9]; 21 Days,124.0 ± 3
same,Persoz Hardness,"[9]; 28 Days, listed as NM CPL",~126.0±1
same,Persoz Hardness,"[9]; 28 Days, listed as NMCPL",126.0 ± 1
same,Open Time,[10],14 min
same,Solubility,[11],27.5 g/100 g of Solvent
